# Measured values: ChEMBL document CHEMBL1201862, “PubChem BioAssay data set” (2004)
#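 Exposure lasted 48 hours, with cells grown in 96-well plates and compounds tested at five concentrations. Here, GI50 denotes the concentration required for 50% inhibition of growth.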 The source made the active and inactive calls. Cut-off read from the data, not from the text of the source: active = GI50 up to about 1.1 µM and inactive = higher.
# How the values were obtained:
# Test in all cases: inhibition of tumour cell growth, NCI panel, 48 h
# [1] = tested on: 786-0
# [2] = tested on: A498
# [3] = tested on: A549
# [4] = tested on: ACHN
# [5] = tested on: CAKI-1
# [6] = tested on: CCRF-CEM
# [7] = tested on: COLO 205
# [8] = tested on: DLD-1
# [9] = tested on: DMS-114
# [10] = tested on: DMS-273
# [11] = tested on: EKVX
# [12] = tested on: HCC 2998
# [13] = tested on: HCT-15
# [14] = tested on: HL-60
# [15] = tested on: HOP-18
# [16] = tested on: HOP-62
# [17] = tested on: HOP-92
# [18] = tested on: HT-29
# [19] = tested on: K562
# [20] = tested on: KM-20L2
# [21] = tested on: KM12
# [22] = tested on: LOX IMVI
# [23] = tested on: LXFL 529
# [24] = tested on: M14
# [25] = tested on: MOLT-4
# [26] = tested on: Malme-3M
# [27] = tested on: NCI-H226
# [28] = tested on: NCI-H23
# [29] = tested on: NCI-H460
# [30] = tested on: NCI-H522
# [31] = tested on: OVCAR-3
# [32] = tested on: OVCAR-4
# [33] = tested on: OVCAR-5
# [34] = tested on: RPMI-8226
# [35] = tested on: SF-268
# [36] = tested on: SF-295
# [37] = tested on: SF-539
# [38] = tested on: SK-MEL-28
# [39] = tested on: SK-MEL-2
# [40] = tested on: SK-MEL-5
# [41] = tested on: SK-OV-3
# [42] = tested on: SNB-19
# [43] = tested on: SNB-78
# [44] = tested on: SW-620
# [45] = tested on: TK-10
# [46] = tested on: U-251
# [47] = tested on: UACC-257
# [48] = tested on: UO-31
# [49] = tested on: XF498
# [50] = tested on: M19-MEL
# [51] = tested on: OVCAR-8
# [52] = tested on: RXF 393
# [53] = tested on: SN12C
# [54] = tested on: SR
# [55] = tested on: UACC-62
smiles,measurement,setting,value
O=c1ncccn1C1C=C(CO)C(O)C1O (stereo not drawn),GI50,[1],> 50 µM (inactive)
same,GI50,[2],> 50 µM (inactive)
same,GI50,[3],> 50 µM (inactive)
same,GI50,[4],> 50 µM (inactive)
same,GI50,[5],> 50 µM (inactive)
same,GI50,[6],> 50 µM (inactive)
same,GI50,[7],> 50 µM (inactive)
same,GI50,[8],> 50 µM (inactive)
same,GI50,[9],> 50 µM (inactive)
same,GI50,[10],> 50 µM (inactive)
same,GI50,[11],> 50 µM (inactive)
same,GI50,[12],> 50 µM (inactive)
same,GI50,[13],> 50 µM
same,GI50,[14],> 50 µM (inactive)
same,GI50,[15],> 50 µM (inactive)
same,GI50,[16],> 50 µM (inactive)
same,GI50,[17],> 50 µM (inactive)
same,GI50,[18],> 50 µM (inactive)
same,GI50,[19],> 50 µM (inactive)
same,GI50,[20],> 50 µM (inactive)
same,GI50,[21],> 50 µM (inactive)
same,GI50,[22],> 50 µM (inactive)
same,GI50,[23],> 50 µM (inactive)
same,GI50,[24],> 50 µM (inactive)
same,GI50,[25],> 50 µM (inactive)
same,GI50,[26],> 50 µM (inactive)
same,GI50,[27],> 50 µM (inactive)
same,GI50,[28],> 50 µM (inactive)
same,GI50,[29],> 50 µM (inactive)
same,GI50,[30],> 50 µM (inactive)
same,GI50,[31],> 50 µM (inactive)
same,GI50,[32],> 50 µM (inactive)
same,GI50,[33],> 50 µM (inactive)
same,GI50,[34],> 50 µM (inactive)
same,GI50,[35],> 50 µM (inactive)
same,GI50,[36],> 50 µM (inactive)
same,GI50,[37],> 50 µM (inactive)
same,GI50,[38],> 50 µM (inactive)
same,GI50,[39],> 50 µM (inactive)
same,GI50,[40],> 50 µM (inactive)
same,GI50,[41],> 50 µM (inactive)
same,GI50,[42],> 50 µM (inactive)
same,GI50,[43],> 50 µM (inactive)
same,GI50,[44],> 50 µM (inactive)
same,GI50,[45],> 50 µM (inactive)
same,GI50,[46],> 50 µM (inactive)
same,GI50,[47],> 50 µM (inactive)
same,GI50,[48],> 50 µM (inactive)
same,GI50,[49],> 50 µM (inactive)
CC(C)CN1CC(C)C(=O)NC1=O (stereo not drawn),GI50,[1],> 100 µM (inactive)
same,GI50,[2],> 100 µM (inactive)
same,GI50,[3],> 100 µM (inactive)
same,GI50,[4],> 100 µM (inactive)
same,GI50,[5],> 100 µM (inactive)
same,GI50,[6],> 100 µM (inactive)
same,GI50,[7],> 100 µM (inactive)
same,GI50,[8],> 100 µM (inactive)
same,GI50,[9],> 100 µM (inactive)
same,GI50,[10],> 100 µM (inactive)
same,GI50,[11],> 100 µM (inactive)
same,GI50,[14],> 100 µM (inactive)
same,GI50,[16],> 100 µM (inactive)
same,GI50,[17],> 100 µM (inactive)
same,GI50,[18],> 100 µM (inactive)
same,GI50,[19],> 100 µM (inactive)
same,GI50,[20],> 100 µM (inactive)
same,GI50,[21],> 100 µM (inactive)
same,GI50,[22],> 100 µM (inactive)
same,GI50,[23],> 100 µM (inactive)
same,GI50,[50],> 100 µM (inactive)
same,GI50,[25],> 100 µM (inactive)
same,GI50,[26],> 100 µM (inactive)
same,GI50,[27],> 100 µM (inactive)
same,GI50,[28],> 100 µM (inactive)
same,GI50,[29],> 100 µM (inactive)
same,GI50,[30],> 100 µM (inactive)
same,GI50,[32],> 100 µM (inactive)
same,GI50,[33],> 100 µM (inactive)
same,GI50,[51],> 100 µM (inactive)
same,GI50,[52],> 100 µM (inactive)
same,GI50,[35],> 100 µM (inactive)
same,GI50,[36],> 100 µM (inactive)
same,GI50,[37],> 100 µM (inactive)
same,GI50,[38],> 100 µM (inactive)
same,GI50,[39],> 100 µM (inactive)
same,GI50,[40],> 100 µM (inactive)
same,GI50,[41],> 100 µM (inactive)
same,GI50,[53],> 100 µM (inactive)
same,GI50,[42],> 100 µM (inactive)
same,GI50,[43],> 100 µM (inactive)
same,GI50,[54],> 100 µM (inactive)
same,GI50,[44],> 100 µM (inactive)
same,GI50,[45],> 100 µM (inactive)
same,GI50,[46],> 100 µM (inactive)
same,GI50,[47],> 100 µM (inactive)
same,GI50,[55],> 100 µM (inactive)
same,GI50,[48],> 100 µM (inactive)
same,GI50,[49],> 100 µM (inactive)
